In patent US8198317B2, “Methylenedioxy phenolic compounds and their use to treat disease” (The Ohio State University Research Foundation, priority 2008, dated 2012):

Key:
[1] = system: SREBP-1; experiment: SREBP-1 regulation in HepG2 cells; type: cell-based, human; details: data not shown
Source text: Next we investigated the effect of INV-75 in regulating LDL receptor expression in the same cells using a similar protocol to assess dose and temporal dependence. FIGS. 5E and 5F depict the time course of LDL receptor expression and dose dependence in response to INV-75. […] INV-75 had no effects on SREBP-1 regulation (data not shown). Simultaneously multiple genes involved in cholesterol synthesis and regulation, apolipoprotein gene expression and expression of PCSK9 (Proprotein convertase subtilisin/kexin type 9) was tested. The latter gene is known to regulate LDL receptor expression by binding to the epidermal growth factor-like repeat A (EGF-A) domain of the low-density lipoprotein receptor (LDLR), inducing LDLR degradation. Inhibition of PSCK9 function is currently being explored as a means of lowering cholesterol levels.

[2] = system: Watanabe Heritable Hyperlipidemic Rabbits (WHHL); experiment: Morphometric analysis of atherosclerotic burden in WHHL rabbits; type: in vivo, rabbit; details: end of 12 weeks, H&E morphometry
Experimental: Segments of descending thoracic aorta were embedded in Optimal Cutting Temperature compound (Tissue-Tek, Sakura Finetek USA Inc, Torrance, Calif.) and frozen on dry ice. En face sections were then prepared. To analyze atherosclerotic burden, 8 sections (4 μm thick) were collected at intervals of 20 μm. After H&E staining, each section was digitized with a digital camera and analyzed using a microscope (Zeiss Axioskop with Spot I digital camera, Jena, Germany) with National Institutes of Health (NIH) Image software version 1.61. Results were expressed as mm^2. Morphometric assessment of plaque burden in the thoracic aorta at the end of 12 weeks corroborated the anti-atherosclerotic effects of INV-75 by MRI on the abdominal aorta. The summary of atherosclerotic burden in abdominal aorta of control and INV-75 groups of WHHL rabbits are presented. n=5/group. *, p<0.05 vs control animals, n=4, using un-paired t test. Approximately 60% reduction in atherosclerosis burden in WHHL rabbits compared to control group was observed (FIG. 9).

[3] = system: Watanabe Heritable Hyperlipidemic Rabbits (WHHL); experiment: 8-Isoprostane enzyme linked immunoassay in WHHL rabbits; type: in vivo, rabbit; details: vs control groups
Experimental: […] […] Both samples underwent affinity purification (Cayman Chemical, Ann Arbor, Mich.) and then measurement of 8-isoprostane with the Stat-8-Isoprostane ELISA kit (Cayman Chemical, Ann Arbor, Mich.). […] The protein levels in liver lysates were determined by BCA Protein Assay (Pierce, Rockford, Ill.).

[4] = system: Patient; experiment: Treatment of a patient with chronic myocardial infarction (Example 19); type: in vivo, human; details: 1.0 to 100 mg/kg with standard therapy
Experimental: A person with a prior history of a heart attack (myocardial infarction) 1 year ago presents for evaluation. They are asymptomatic. The patient is administered a composition comprising an effective amount of 3,4-Methylenedioxy 6-nitro phenyl lipoate (INV-7465) (1.0 to 100 mg/kg). Alternate therapies include, 3,4-methylenedioxy phenyl acetate (INV 73); 3,4-methylenedioxy-6-nitrophenol (INV 74); 3,4-methylenedioxy-6-nitrophenyl acetate (INV 75); 3,4-Methylenedioxy 6-nitro phenyl lipoate (INV-7465) or 3,4-Methylenedioxy phenyl lipoate (INV-7065). The composition is administered in conjunction with therapy such as aspirin, a drug to reduce the tendency of platelet aggregation, such as clopidogrel bisulfate, a statin, ezetimibe, an angiotensin converting enzyme inhibitor or angiotensin receptor blocker, and other anti-hypertensive agents such as beta-blockers, using dosages known to one of ordinary skill in the art. Patient notes added benefit in total and LDL cholesterol and a reduction in inflammatory markers such as C reactive protein.

[5] = system: thoracic aorta of New Zealand White rabbits; experiment: Myograph experiments on thoracic aortic rings of NZW rabbits; type: in vivo, rabbit
Experimental: Animal Model: 15 male New Zealand White rabbits (Charles River, Mass.) were fed with high fat diet (HFD) (Harlan Teklad rabbit diet with 0.5% cholesterol, TD 87251). After 4 weeks of high fat diet, rabbits were randomized into three different treatment groups, normal control (n=5), lipoic acid (100 mg/kg/day) (n=5), INV 70-65 (100 mg/kg/day) (n=5). These drugs were administered to the animals via their chow by mixing the drugs with the high fat diet. A fixed amount of chow and drugs admixed in the chow were fed to all animals every day after carefully calculating food intake in each rabbit. Drugs were dissolved in 100% ethanol and sprayed onto the diet and kept under vacuum to let ethanol evaporate overnight. Two (2) weeks after drug or control admixed HFD, all rabbits underwent aortic balloon denudation surgeries followed by 12 weeks of continued administration of drug or controls admixed with HFD. FIG. 29 provides an outline of the experimental design.
Rabbits were euthanized by injection of lethal doses of pentobarbital. The thoracic aortas were collected for the myograph studies. Two (2) mm thoracic aortic rings were suspended in individual organ chambers filled with physiological salt solution buffer (sodium chloride, 130 mEq/L; potassium chloride, 4.7 mEq/L; calcium dichloride, 1.6 mEq/L; magnesium sulfate, 1.17 mEq/L; potassium diphosphate, 1.18 mEq/L; sodium bicarbonate, 14.9 mEq/L; EDTA, 0.026 mEq/L; and glucose, 99.1 mg/dL [5.5 mmol/L]; pH, 7.4), aerated continuously with 5% carbon dioxide in oxygen at 37° C. Vessels were allowed to equilibrate for at least 1 hour at a resting tension of 30 mN before being subjected to graded doses of agonists. The vasoconstrictor agonist phenylephrine (PE) was used and responses were expressed as a percentage of the peak response to 120 mEq/L of potassium chloride. The vessels subjected to PE were washed thoroughly and allowed to equilibrate for 1 hour before beginning experiments with acetylcholine or sodium nitroprusside (SNP). […] Results for the vasodilators were expressed as a percentage of pre-contraction by PE (0.1 μM).

[6] = NZW thoracic aorta, end of 12 weeks
[7] = NZW thoracic aorta, end of 12 weeks, % of pre-contraction by PE

CC(=O)Oc1cc2c(cc1[N+](=O)[O-])OCO2 [INV-75, 3,4-methylenedioxy-6-nitrophenyl acetate]
SREBP-1 regulation [1]: no effects | reduction in atherosclerosis burden compared to control group [2]: Approximately 60% | 8-Isoprostane production in aortic homogenates [3]: significantly lower | 8-Isoprostane production in plasma [3]: significantly lower

O=C(CCCCC1CCSS1)Oc1cc2c(cc1[N+](=O)[O-])OCO2 (centres unmarked) [INV-7465, 3,4-Methylenedioxy 6-nitro phenyl lipoate]
inflammatory markers such as C reactive protein [4]: reduction | total and LDL cholesterol [4]: added benefit

O=C(CCCCC1CCSS1)Oc1ccc2c(c1)OCO2 (centres unmarked) [INV-7065, 3,4-Methylenedioxy phenyl lipoate]
Ach LogEC50 [5, 6]: −6.67 ± 0.16 M | PE LogEC50 [5, 6]: −6.28 ± 0.08 M | SNP-1 LogEC50 [5, 6]: −7.09 ± 0.16 M | PE Maximum Effect ([5]; NZW thoracic aorta, end of 12 weeks, % of peak response to KCl): 109.1 ± 4.78 % | Ach Maximum Effect [5, 7]: −29.84 ± 2.09 % | Insulin Maximum Effect [5, 7]: −132.5 ± 14.59 % | SNP-1 Maximum Effect [5, 7]: −83.06 ± 4.95% | effect on Insulin EC50 doses ([5]; NZW, in words): no effect | improving response to acetylcholine when compared to control ([5]; NZW, in words): no different than lipoic acid | relaxation to peak doses of Insulin compared to lipoic acid ([5]; NZW, in words): improved | vascular contractility to alpha receptor agonist ([5]; NZW, in words): decreases
